Data as given in EP4733388A1, “LACTOBACILLUS RHAMNOSUS STRAIN, VIABLE BACTERIA FORMULATION AND PREPARATION METHOD THEREFOR AND USE THEREOF” (priority 2023, dated 2024).

What was measured:
L. rhamnosus GG strain = assay: Antibiotic susceptibility test, K-B agar method (disc diffusion); type: cell-based, Lactobacillus rhamnosus; details: standard antibiotic disc, 37°C, 48 h; CLSI criteria, breakpoints in mm per antibiotic in c1-c3; further: key: S (susceptible) represents sensitivity; I (intermediate) represents moderate sensitivity; R (resistance) represents drug resistance
Protocol: (§1) The drug susceptibility test was performed using the K-B agar method recommended by the National Committee for Clinical Laboratory Standards (NCCLS), the drug sensitivity test, as follows: • (1) The commercial strain L. rhamnosus GG strain was selected as the control strain. The L. rhamnosus HOM1213 strain and the GG strain were inoculated in MRS liquid medium at an inoculation amount of 3% of the total amount of the medium, cultured at 37°C for 24 hours, and activated continuously for 3 generations for later use. • (2) 1 mL of bacterial solution (1.5 × 10^8 CFU/mL) and 15 mL of MRS solid medium were mixed, and placed in a sterile culture dish, and mixed uniformly. A standard antibiotic susceptibility testing disc was placed after the plate was solidified, and cultured at 37°C for 48 h, and the diameter of the inhibition zone was measured and recorded.
(§2) Table 3. Results of susceptibility test of L. rhamnosus HOM1213 strain on nine antibiotics.

[1] = tested on: L. rhamnosus HOM1213 strain; assay: as above; type: cell-based, Lactobacillus rhamnosus; details: for Susceptibility (class by Diameter of Inhibition Zone), HOM1213 Group: standard antibiotic disc, 37°C, 48 h, CLSI criteria, breakpoints in mm per antibiotic in c1-c3; for Susceptibility of L. rhamnosus HOM1213 strain to the antibiotic, in words: summary of Table 3; on Susceptibility (class by Diameter of Inhibition Zone), HOM1213 Group: key: S (susceptible) represents sensitivity; I (intermediate) represents moderate sensitivity; R (resistance) represents drug resistance
Protocol: as §1, §2

[2] = tested on: superoxide dismutase (SOD); assay: In vitro antioxidant capacity test: superoxide dismutase (SOD); details: strain suspension 2 × 10^10 CFU/ml; vitamin C 0.05%; mean ± SD
Protocol: (§3) The L. rhamnosus HOM1213 isolated in Example 1 and GG strains were inoculated in an MRS liquid medium at an inoculation amount of 3% of the total amount of the medium, fermented and cultured at 37°C for 24 h, activated continuously for 3 generations. It was centrifuged at 11000 rpm for 10 min, and the bacterial cells were washed with PBS buffer, resuspended and centrifuged, repeated three times. The count of bacteria was adjusted to 2 × 10^10 CFU/ml for later use. Indicators included total antioxidant capacity (T-AOC), superoxide dismutase (SOD), glutathione peroxidase (GSH-Px), glutathione (GSH), hydroxyl radical scavenging test (·OH), and DPPH radical scavenging test. The DPPH free radical scavenging test used a colorimetric method, and its principle was that the free radical scavenger donated an electron to pair with the lone pair electron of the DPPH free radicals, so that its own color changed from purple to yellow. Its absorbance at the wavelength of 517 nm decreased, and the degree of change has a linear relation to the degree of free radical scavenging, that is, the stronger the scavenging ability of the free radical scavenger, the lower the absorbance. Other indicators were determined by using a kit purchased from Nanjing Jiancheng Company, according to operation instructions. […]

glutathione (GSH) = assay: In vitro antioxidant capacity test: glutathione (GSH); details: strain suspension 2 × 10^10 CFU/ml; vitamin C 0.05%; mean ± SD
Protocol: as §3

[3] = DPPH radical scavenging test (colorimetric, 517 nm); details: strain suspension 2 × 10^10 CFU/ml; vitamin C 0.05%; mean ± SD
Protocol: as §3

[4] = Hydroxyl radical scavenging test (·OH); details: strain suspension 2 × 10^10 CFU/ml; vitamin C 0.05%; mean ± SD
Protocol: as §3

[5] = In vitro antioxidant capacity test: total antioxidant capacity (T-AOC); details: strain suspension 2 × 10^10 CFU/ml; vitamin C 0.05%; mean ± SD
Protocol: as §3

Molecule | Susceptibility (class by Diameter of Inhibition Zone), GG Group (L. rhamnosus GG strain) | Susceptibility (class by Diameter of Inhibition Zone), HOM1213 Group [1] | Susceptibility of L. rhamnosus HOM1213 strain to the antibiotic, in words [1] | further results
CC1(C)S[C@@H]2[C@H](NC(=O)[C@H](N)c3ccccc3)C(=O)N2[C@H]1C(=O)O [Ampicillin] | R | R | resistant | –
O=C(N[C@H](CO)[C@H](O)c1ccc([N+](=O)[O-])cc1)C(Cl)Cl [Chloramphenicol] | S | S | – | –
CCC[C@@H]1C[C@@H](C(=O)N[C@@H]([C@H]2O[C@H](SC)[C@H](O)[C@@H](O)[C@H]2O)[C@H](C)Cl)N(C)C1 [Clindamycin] | S | S | – | –
CC[C@H]1OC(=O)[C@H](C)[C@@H](O[C@H]2C[C@@](C)(OC)[C@@H](O)[C@H](C)O2)[C@H](C)[C@@H](O[C@@H]2O[C@H](C)C[C@H](N(C)C)[C@H]2O)[C@](C)(O)C[C@@H](C)C(=O)[C@H](C)[C@@H](O)[C@]1(C)O [Erythromycin] | S | S | – | –
NC[C@H]1O[C@H](O[C@H]2[C@H](O)[C@@H](O[C@H]3O[C@H](CO)[C@@H](O)[C@H](N)[C@H]3O)[C@H](N)C[C@@H]2N)[C@H](O)[C@@H](O)[C@@H]1O [Kanamycin] | R | R | – | –
[H]/N=C(/N)N[C@H]1[C@H](O)[C@@H](O)[C@H](O[C@@H]2O[C@@H](C)[C@](O)(C=O)[C@H]2O[C@@H]2O[C@@H](CO)[C@H](O)[C@@H](O)[C@@H]2NC)[C@@H](N/C(N)=N\[H])[C@@H]1O [Streptomycin] | I | I | moderately resistant | –
CN(C)[C@@H]1C(O)=C(C(N)=O)C(=O)[C@@]2(O)C(O)=C3C(=O)c4c(O)cccc4[C@@](C)(O)[C@H]3C[C@@H]12 [Tetracycline] | S | S | – | –
CN[C@H](CC(C)C)C(=O)N[C@H]1C(=O)N[C@@H](CC(N)=O)C(=O)N[C@H]2C(=O)N[C@H]3C(=O)N[C@H](C(=O)N[C@H](C(=O)O)c4cc(O)cc(O)c4-c4cc3ccc4O)[C@H](O)c3ccc(c(Cl)c3)Oc3cc2cc(c3O[C@@H]2O[C@H](CO)[C@@H](O)[C@H](O)[C@H]2O[C@H]2C[C@](C)(N)[C@H](O)[C@H](C)O2)Oc2ccc(cc2Cl)[C@H]1O [Vancomycin] | R | R | resistant | –
O=C1O[C@H]([C@@H](O)CO)C(O)=C1O [Vitamin C] | – | – | – | SOD [2]: 18.07±1.08 U/mL; GSH (glutathione (GSH)): 0.33±0.06 mgGSH/L; DPPH Scavenging Rate (%) [3]: 96.14±0.08%; ·OH Scavenging Rate (%) [4]: 36.70±1.33%; T-AOC [5]: 16.90±1.42 U/mL
Gentamicin | R | R | resistant | –
